`O=C1CC[C@@H](CO)N1` gave a melting point of 78 to 86 °C.
The same measure for `NC(=S)c1cccc(Cl)c1`: 110 to 113 °C.
The same measure for `CCCCCC(C)=O`: -35 °C.
For `CC(=O)Oc1ccccc1C1NC(=O)NC(C)=C1C(=O)OCc1ccccc1` (centres undefined), the melting point lay within 202 to 203 °C.
The figure for `COc1cc(OC)c(C#N)c(OC)c1` is 142 to 145 °C; for `N#Cc1ccc(OC2CCOCC2)nc1` it is 134 to 135 °C.
For `CC(=O)NC(Cc1ccccc1F)C(=O)O` (racemic), the melting point lay within 153 to 155 °C.
`FC(F)C(F)F` yielded a melting point of -89 °C.
The same measure for `O=C(O)C(F)(F)C(F)(F)C(F)(F)C(F)(C(F)(F)F)C(F)(F)F`: 13 °C; for `CN1C(=O)Cc2cc(N)ccc21`: 109 to 112 °C; for `FC(F)(F)C(F)(F)C(F)(F)C(F)(F)C(F)(F)C(F)(F)C(F)(F)C(F)(F)I`: 37 °C.
The figure for `CCCCCCCCCCCCCCCCCCCC(=O)OCC` is 50 °C; for `O=C1CSCC(=O)O1` it is 94 to 97 °C.
On to `Cc1ccc(S(=O)(=O)NC(=S)Nc2ccccc2)cc1`, for which the melting point was in the range of 148 to 149 °C.
For the compound `CC(=O)Nc1cccc2ccccc12`, the melting point was 156 to 160 °C.
`NC(=O)c1cccnc1Sc1ccc(Cl)cc1` displayed a melting point of 209 to 211 °C.
With `COc1ccccc1Cl`, the melting point is -26.8 °C.
The compound `Cc1ccc2c(c1)C(=O)C2` registered a melting point of 46 °C.
Turning to `SCCCCS`, the melting point was -53.9 °C.
The same measure for `CCCCCC(=NO)C(C)=O`: 59 °C.
Take `O=C(c1cccs1)c1noc(-c2ccc3ccccc3c2)c1S(=O)(=O)c1ccccc1`: the melting point was found to be 128 °C.
`O=C1Cc2cc3c(cc21)C(=O)C3` had a melting point of 207 °C.
The figure for `O=C1CCCC2C3CCCN4CCCC(CN12)C34` (centres undefined) is 76 °C; for `CN1CCC(N(Cc2cccs2)c2ccccc2)CC1` it is 95 °C.
The same measure for `COC(=O)C1(S(=O)(=O)c2ccc([N+](=O)[O-])cc2)CC1`: 127 °C; for `COc1ccccc1N1CCN(C(=O)c2ccc(N)cc2)CC1`: 212 to 214 °C.
Compound `O=C(OCCc1ccc(CCOC(=O)c2ccccc2)cc1)c1ccccc1` displayed a melting point of 137 °C.
Consider `CCNc1nc2c(cc1C(=O)OC)c(=O)oc1ccccc12`, for which the melting point was determined as 210 °C.
With `Cc1ccccc1C(=O)Cc1ccccc1C(=O)N(C)c1ccccc1`, the melting point stood at 119 °C.
The figure for `CCCCCCCCCCCCCC=CC(O)C(N)CO` (centres undefined) is 81 to 82 °C; for `Nc1c(C(=O)O)sc2nc(-c3ccccc3)cc(C(F)(F)F)c12` it is 159 to 161 °C.
As to `O=Cc1c[nH]c2ccc(OCc3ccccc3)cc12`, the melting point came to 241 °C.
Consider `O=c1[nH]c2scc(-c3ccccc3)c2c(=O)n1-c1cccc(C(F)(F)F)c1`, for which the melting point was in the range of 231 to 233 °C.
The same measure for `O=C(Cc1ccccc1)OC(=O)Cc1ccccc1`: 73.3 °C; for `CCOC(=O)CCC(C)C1CCC2C3C=CC4CC(OC(C)=O)CCC4(C)C3CC(OC(C)=O)C12C` (centres undefined): 83 to 84 °C.
The same measure for `Cn1c(S)nnc1-c1cccs1`: 153 to 156 °C; for `C/C(=N\N=C1C(=O)Nc2ccccc21)c1c(O)c2ccccc2n(-c2ccccc2)c1=O`: 267 °C; for `N#Cc1ccccc1C(F)(F)F`: 18 °C.
The same measure for `COc1ccc(C(=O)c2cccc(C)c2)cc1OC`: 93 °C.
`O=[N+]([O-])c1c(Cl)c(Cl)c(Cl)c(Cl)c1NCc1ccccc1` gave a melting point of 96 to 97 °C.
In turn, `CCOC(=O)C1CSCCN1` (centres undefined) gave a melting point of 118 to 121 °C.
The figure for `O=C(O)CCCc1ccc2c(c1)OCCO2` is 76 to 78 °C.
`Cc1ccc(C(=O)C2=NOC3C(=O)N(c4ccc(F)cc4)C(=O)C23)cc1` (centres undefined): the melting point is 173 °C.
The figure for `CCOC(=O)C(Cc1c[nH]c2ccccc12)NC(C)=O` (centres undefined) is 106 °C.
The figure for `NC(=O)/C(=N\Nc1cccnc1)c1nc2ccccc2s1` is 238 °C; for `c1ccc(C2OCCCO2)cc1` it is 41 °C.
The figure for `Cn1c(=O)c(C2=NNC(=O)C2=NNc2cc(Cl)ccc2Cl)c(O)c2ccccc21` is 284 °C.
In the case of `CCCCCCc1ccccc1`, the melting point was -61 °C.
In turn, `CCC(F)(F)C(=O)O` had a melting point of 8 °C.
With `CCC=C(C)C`, the melting point was -135 °C.
The figure for `Cc1ccc(C(=O)OC2CC(C#N)OC2OC(=O)c2ccc(C)cc2)cc1` (centres undefined) is 110 to 111 °C; for `NC(=S)Nc1ccccc1Cl` it is 146 °C.
Regarding `CNC(=O)ON=C1C(Cl)C2CC(C#N)C1C2` (centres undefined), the melting point is 144 °C.
The figure for `Nc1nnc(S)s1` is 243 to 244 °C.
For `Cc1c(Cl)c(Cl)c(Cl)c(Cl)c1Cl`, the melting point was determined as 225 °C.
Regarding `c1ccc(-c2nc3ccccc3[nH]2)nc1`, the melting point is 223 °C.
Compound `O=C(N(Cc1ccccc1)Cc1ccccc1)C(F)(F)C(F)(F)C(F)(F)C(F)(F)C(F)(F)C(F)(F)C(F)(F)C(F)(F)F` yielded a melting point of 49 °C.
The same measure for `Nc1cccc(-n2cccc2)c1`: 43 to 44 °C; for `N#Cc1cc(Cl)ccc1O`: 165 to 168 °C; for `Cc1ccc(C(=O)c2cc3c(cc2Br)OCCO3)cc1`: 110 to 112 °C.
The compound `NC1=C(c2ccccc2)C(=O)c2ccccc21` returned a melting point of 270 to 273 °C.
The figure for `COc1cc(C(c2c(O)cc(C)oc2=O)c2c(O)cc(C)oc2=O)ccc1O` is 205 to 208 °C; for `COc1c2occc2cc2ccc(=O)oc12` it is 148 °C; for `O=C=Nc1cccc(Cl)c1` it is -4 °C.
The same measure for `CSc1nc(N)c(C(N)=O)s1`: 199 to 200 °C.
The same measure for `c1cc2ccc3cccc4ccc(c1)c2c34`: 153 °C; for `COc1cc(O)c(C(=O)c2ccccc2)c(O)c1`: 130 °C.
Compound `CC(=O)Nc1c(C(=O)Cc2c(C)cc(C)cc2C)oc2ccccc12` displayed a melting point of 161 to 162 °C.
The same measure for `O=S(=O)(Nc1cc(F)c(F)cc1F)C(F)(F)F`: 58.5 °C; for `Clc1c(Cl)c(Cl)c2c(c1Cl)OC(c1ccccc1)O2`: 115 °C.
The figure for `CC(=O)N1CCNCC1` is 32 °C; for `O=C=Nc1cc(F)cc2c1OCOC2` it is 85 to 86 °C; for `COc1c(F)cc(Br)cc1[N+](=O)[O-]` it is 55 °C.
For the compound `CCn1c2ccc(Br)cc2c2cc(Br)ccc21`, the melting point stood at 139 °C.
The same measure for `CC(=O)c1cc2cc(Br)ccc2o1`: 111 °C; for `Cc1cc(C)c(C)c(CO)c1C`: 112 °C; for `COc1c(Br)ccc2c1C(=O)C2`: 118 °C.
`Oc1cccc2[nH]c3ccccc3c12`: the melting point was in the range of 169 to 173 °C.
Turning to `CC=CC(=O)OC1CC2OC3C=C(C)C(=O)CC3(C)C1(C)C21CO1` (centres undefined), the melting point amounted to 118 °C.
The figure for `CCC(N)(CO)CO` is 37.5 °C; for `C(=NC(N=Cc1ccco1)c1ccco1)c1ccco1` (centres undefined) it is 117 °C.
The figure for `CC(Br)C(C)(C)Br` (centres undefined) is 11 °C; for `Cn1ccc2c(S(=O)(=O)Cl)cccc21` it is 94 to 98 °C; for `CC1=CC(=O)OC2(C1)CC1CCC2CN1C` (centres undefined) it is 54.5 °C.
The same measure for `COc1c2ccoc2cc2oc(COC3OC(CO)C(O)C(O)C3O)cc(=O)c12` (centres undefined): 179 °C; for `CC(C)(C)C(=O)CS(=O)(=O)c1ccc(Cl)cc1`: 97 °C; for `C=C(C)C1CCC2(C)CCC3(C)C(CCC4C5(C)CCC(O)C(C)(C)C5CCC43C)C12` (centres undefined): 216 °C.
For the compound `O=C(NO)c1ccccc1`, the melting point was found to be 128 °C.
For `O=S1(=O)CCN(CN2CCS(=O)(=O)NC2)CN1`, the melting point turned out to be 154 °C.
Regarding `N#CC(c1ccc(Cl)nn1)c1c(Cl)cccc1Cl` (centres undefined), the melting point was in the range of 124 to 131 °C.
The compound `CCOc1ccc2c(C)cc(=O)oc2c1` came in with a melting point of 115 °C.
The figure for `COC(=O)c1cc(C(C)=O)ccc1O` is 60 to 61 °C; for `C#CC(C)N(C(=O)CCl)c1ccccc1` (centres undefined) it is 43.5 °C.
As to `C=C1CC(=O)O1`, the melting point is -6.5 °C.
Turning to `CCOc1ccc(NC(N)=O)cc1`, the melting point stood at 173 °C.
In turn, `Brc1ccc2c(c1)Oc1ccc(Br)cc1O2` gave a melting point of 193 °C.
The figure for `CCCCOC(=O)CC(=O)OCCCC` is -83 °C.
The figure for `O=[N+]([O-])c1ccc(-c2ccc(/N=N/c3ccccc3)cc2)cc1` is 178 to 179 °C; for `CN(C)c1ccc(C(=O)C(=O)c2ccc(N(C)C)cc2)cc1` it is 202 °C.
As for `CC(=O)C1(C)CCC2C3CCC4=CC(=O)CCC4=C3CCC21C` (centres undefined), the melting point was 106 °C.
The same measure for `N#C/C(=N\Nc1ccc([N+](=O)[O-])cc1)c1nc2ccccc2c(=O)[nH]1`: 273 °C; for `Nc1ncnc2c1ccn2C1OC(CO)C(O)C1O` (centres undefined): 247 °C; for `NS(=O)(=O)c1ccc(F)cc1C(F)(F)F`: 167 °C.
The same measure for `CC(=O)OCC(=O)C1(O)CCC2(O)C3CCC4=CC(=O)CCC4(C)C3CCC12C` (centres undefined): 236 °C.
`OCc1cc(-c2ccccc2)on1` gave a melting point of 99 to 102 °C.
The compound `COC(=O)CCc1c([N+](=O)[O-])cc2c(c1[N+](=O)[O-])NC(=O)CC2` yielded a melting point of 166 °C.
The compound `Cc1nn(C)c(N2CCOCC2)c1N` had a melting point of 156 to 157 °C.
`O=C(O)c1ccccc1C(c1ccc(O)cc1)c1ccc(O)cc1` gave a melting point of 238 °C.
With `COC(=O)c1sccc1OC`, the melting point was determined as 62 °C.

Values taken from a melting point compilation (Tetko et al.).
